This passage reports EC50, IC50 and Kd results from patent US11518764B2, “Substituted heteroaryls as inhibitors of the BCL6 BTB domain protein-protein interaction” (Ontario Institute for Cancer Research (OICR), priority 2018, dated 2022).

The test system of assay [1] is BCL6 reporter construct (3xBCL6-TK-Luc) in SuDHL4 cells. Briefly: Cell-based luciferase assay. As to conditions: Homo sapiens, SU-DHL-4, 48 h, read-out: Luciferase-Assay EC50, uM), SuDHL4-3xBCL6-TK-Luc cells, two days, high dose 10 uM. Summed up: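 SuDHL4 cells stably carrying a 3×BCL6-site TK-promoter firefly luciferase reporter, seeded at 15,000 cells/well, were dosed over a 10-point range (top 10 uM) and grown two days at 37 °C, 5% CO2. Luminescence then read after adding neolite reagent at room temperature.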

The subject of assay [2] is Karpas422 cells. Put plainly: Tumor cell growth inhibition assay. It is filed as cell-based. Particulars: Homo sapiens, KARPAS-422, 144 h, read-out: Tumor Growth Inhibition in Karpas-422 (IC50, uM), Karpas422 cells, six days, ATPlite. Summed up:
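Karpas422 cells (2,000/well) in Alpha-MEM with 10% FBS dosed across 10 concentrations (top 5 uM) and grown six days at 37° C., 5% CO2. Viability read as ATPlite luminescence.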

For assay [3], the target named is BCL6 BTB domain (Homo sapiens (Human), UniProt P41182). Briefly: Surface plasmon resonance (SPR) assay. It counts as binding. Particulars: BCL6 BTB domain captured on SA chip, single cycle kinetics.

For `Cn1cnc2c(c(-c3cc(Cl)c(O)c(C(N)=O)c3)cn2CC(=O)Nc2cc(N3CCOCC3)c(F)cc2Cl)c1=O` [Compound I-195], the EC50 in assay [1] was 1.5 µM. Moreover, the IC50 in assay [2] came to 1.08 µM. For the same molecule, the Kd in assay [3] was 196 nM.
The matching figures for `Cn1cnc2c(c(-c3cc(C(N)=O)c(O)c(Cl)c3F)cn2CC(=O)Nc2cc(N3CCOCC3)ncc2F)c1=O` [Compound I-196]: 6.34 µM, 10 µM and 323 nM.
The like results for `COc1c(O)c(C(N)=O)cc(-c2cn(CC(=O)Nc3cc(N4CCOCC4)ncc3F)c3ncn(C)c(=O)c23)c1F` [Compound I-197] were, in that order, 4.01 µM, 10 µM and 218 nM.
The matching figures for `C[C@@H](CO)Nc1cc(NC(=O)Cn2cc(-c3cc(Cl)c(O)c(C(N)=O)c3)c3c(=O)n(C)cnc32)c(Cl)cn1` [Compound I-198]: 5.82 µM, 3.02 µM and 21.7 nM.
Take `Cc1nc2c(c(-c3cc(F)c(O)c(C(N)=O)c3)cn2CC(=O)Nc2cc(N3CC4CCC(C3)O4)ncc2Cl)c(=O)n1C` [Compound I-199]: the EC50 in assay [1] is 0.117 µM. Also, in assay [2], the IC50 is 0.0909 µM. In addition, the Kd in assay [3] amounted to 8.18 nM.
The matching figures for `Cn1cnc2c(c(-c3cc(Cl)c(O)c(C(N)=O)c3)cn2CC(=O)Nc2cc(N3CCOCC3)nc(F)c2Cl)c1=O` [Compound I-200]: 0.158 µM, 0.133 µM and 17.9 nM.
The matching figures for `Cn1cnc2c(c(-c3cc(Cl)c(O)c(C(N)=O)c3)cn2CC(=O)Nc2cc(N3CC(C)(C)NC(C)(C)C3)ncc2Cl)c1=O` [Compound I-201]: 0.317 µM, 0.155 µM and 11.1 nM.
The matching figures for `CC[C@@H]1CN(c2cc(NC(=O)Cn3cc(-c4cc(Cl)c(O)c(C(N)=O)c4)c4c(=O)n(C)cnc43)c(Cl)cn2)CCO1` [Compound I-202]: 0.211 µM, 0.156 µM and 23.9 nM.
For the molecule `CC[C@H]1CN(c2cc(NC(=O)Cn3cc(-c4cc(Cl)c(O)c(C(N)=O)c4)c4c(=O)n(C)cnc43)c(Cl)cn2)CCO1` [Compound I-203], the EC50 in assay [1] turned out to be 0.222 µM. Also, the IC50 in assay [2] came to 0.187 µM. Moreover, in assay [3], the dissociation constant Kd amounted to 30.6 nM.
For the molecule `CC(C)[C@H]1CN(c2cc(NC(=O)Cn3cc(-c4cc(Cl)c(O)c(C(N)=O)c4)c4c(=O)n(C)cnc43)c(Cl)cn2)CCO1` [Compound I-204], the EC50 in assay [1] is 0.251 µM. Besides, the IC50 in assay [2] was 0.146 µM. This molecule also showed a Kd in assay [3] of 35.7 nM.
The matching figures for `CC(C)[C@@H]1CN(c2cc(NC(=O)Cn3cc(-c4cc(Cl)c(O)c(C(N)=O)c4)c4c(=O)n(C)cnc43)c(Cl)cn2)CCO1` [Compound I-205]: 0.248 µM, 0.457 µM and 43.6 nM.
The like results for `Cc1nc2c(c(-c3cc(Cl)c(O)c(C(N)=O)c3)cn2CC(=O)Nc2cc(N3CCN(C)C[C@@H]3C)ncc2Cl)c(=O)n1C` [Compound I-206] were, in that order, 0.122 µM, 0.128 µM and 9.34 nM.
The like results for `Cc1nc2c(c(-c3cc(F)c(O)c(C(N)=O)c3)cn2CC(=O)Nc2cc(N3CCN(C)C[C@@H]3C)ncc2Cl)c(=O)n1C` [Compound I-207] were, in that order, 0.0429 µM, 0.0703 µM and 4.45 nM.
For the molecule `Cn1cnc2c(c(-c3cc(Cl)c(O)c(C(N)=O)c3)cn2CC(=O)Nc2cc(F)nc(F)c2F)c1=O` [Compound I-208], in assay [1], the half-maximal effective concentration (EC50) was 5.15 µM. The half-inhibitory concentration (IC50) in assay [2] was 1.2 µM. Besides, in assay [3], the Kd is 567 nM.
With `C=Cc1cc(NC(=O)Cn2cc(-c3cc(Cl)c(O)c(C(N)=O)c3)c3c(=O)n(C)cnc32)c(Cl)cn1` [Compound I-209], the EC50 in assay [1] was 0.296 µM. Also, the IC50 in assay [2] amounted to 0.343 µM. Further, in assay [3], binding was put at a Kd of 51 nM.
The like results for `Cn1cnc2c(c(-c3cc(Cl)c(O)c(C(N)=O)c3)cn2CC(=O)Nc2c(F)c(F)nc(F)c2Cl)c1=O` [Compound I-210] were, in that order, 14.9 µM, 6.16 µM and 1100 nM.
